Molecular target: T1, FXR ligand binding domain (Homo sapiens, UniProt Q96RI1)
T1 sequence (Q96RI1 1-486): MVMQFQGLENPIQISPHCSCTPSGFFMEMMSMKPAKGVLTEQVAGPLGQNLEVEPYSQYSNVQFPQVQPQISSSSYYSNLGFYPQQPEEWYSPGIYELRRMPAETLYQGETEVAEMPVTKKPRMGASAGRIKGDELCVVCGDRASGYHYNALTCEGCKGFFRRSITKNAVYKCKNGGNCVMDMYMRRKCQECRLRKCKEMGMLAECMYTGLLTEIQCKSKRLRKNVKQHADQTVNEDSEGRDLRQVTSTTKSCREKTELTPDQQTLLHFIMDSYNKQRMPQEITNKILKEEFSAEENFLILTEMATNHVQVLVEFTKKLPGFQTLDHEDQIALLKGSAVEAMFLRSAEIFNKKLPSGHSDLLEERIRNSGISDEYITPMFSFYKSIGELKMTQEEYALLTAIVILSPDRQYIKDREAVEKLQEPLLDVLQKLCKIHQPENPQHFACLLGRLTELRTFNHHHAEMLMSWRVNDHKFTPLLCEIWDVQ
Assay: Radioligand binding assay (radioligand displacement, scintillation proximity)
Conditions: GST-FXR LBD fusion protein on SPA beads, radioligand 2,N-dicyclohexyl-2-[2-(2,4 dimethoxy-phenyl)-benzoimidazol-1-yl]-acetamide, RT 30 minutes
Experimental: The following tests were carried out in order to determine the activity of the compounds of formula I. Background information on the binding assay can be found in: Nichols J S et al. “Development of a scintillation proximity assay for peroxisome proliferator-activated receptor gamma ligand binding domain”, (1998) Anal. Biochem. 257: 112-119.
Bacterial and mammalian expression vectors were constructed to produce glutathione-s-transferase (GST) and Gal4 DNA binding domain (GAL) proteins fused to the ligand binding domain (LBD) of human FXR (aa 193-473). To accomplish this, the portions of the sequences encoding the FXR LBD were amplified by polymerase chain reaction (PCR) from a full-length clone by PCR and then subcloned into the plasmid vectors. The final clone was verified by DNA sequence analysis.
The induction, expression, and subsequent purification of GST-LBD fusion protein was performed in E. coli strain BL21(pLysS) cells by standard methods (Current Protocols in Molecular Biology, Wiley Press, ed. Ausubel et al).
Radioligand Binding Assay
Binding of test substances to the FXR ligand binding domain was assessed in a radioligand displacement assay. The assay was performed in a buffer consisting of 50 mM Hepes, pH 7.4, 10 mM NaCl, 5 mM MgCl2. For each reaction well in a 96-well plate, 40 nM of GST-FXR LBD fusion protein was bound to 10 μg glutathione ytrium silicate SPA beads (Pharmacia Amersham) in a final volume of 50 μl by shaking. A radioligand (eg. 40 nM) of 2,N-dicyclohexyl-2-[2-(2,4 dimethoxy-phenyl)-benzoimidazol-1-yl]-acetamide) was added, and the reaction incubated at RT for 30 minutes in the presence of test compounds followed by scintillation proximity counting. All binding assays were performed in 96-well plates and the amount of bound ligand was measured on a Packard TopCount using OptiPlates (Packard). Dose response curves were performed within a range of concentration from 6×10^−9 M to 2.5×10^−5 M.

Question: How did the IC50 turn out when O=C(Nc1ccc(-c2nnn[nH]2)cc1)C(c1c2c(nn1-c1ccc(Cl)cc1)CCCC2)C1CCCCC1 (racemic) [Example 57, [rac]-2-[2-(4-Chloro-phenyl)-4,5,6,7-tetrahydro-2H-indazol-3-yl]-2-cyclohexyl-N[4-(1H-tetrazol-5-yl)-phenyl]-acetamide] was run?
Answer: Its IC50 is 45 nM.

Question: For Cc1cc(C(=O)O)cc(C)c1OCC(c1c2c(nn1-c1ccc(Cl)cc1)CCCC2)C1CCCCC1 (racemic) [Example 40, [rac]-4-{2-[2-(4-Chloro-phenyl)-4,5,6,7-tetrahydro-2H-indazol-3-yl]-2-cyclohexyl-ethoxy}-3,5-dimethyl-benzoic acid], which IC50 is on record?
Answer: Its IC50 is 360 nM.

Question: With O=C(Nc1ccc(F)cc1F)C(c1c2c(nn1-c1ccc(Cl)cc1)CCCC2)C1CCCCC1 (racemic) [Example 14, [rac]-2-[2-(4-Chloro-phenyl)-4,5,6,7-tetrahydro-2H-indazol-3-yl]-2-cyclohexyl-N-(2,4-difluoro-phenyl)-acetamide] as the compound, how does the IC50 read?
Answer: The IC50 was 2830 nM.

Question: Which IC50 does the source give for O=C(NC1CCCCC1)C(c1c2cc(F)c(F)cc2nn1-c1ccc(Cl)cc1)C1CCCCC1 (racemic) [Example 24, [rac]-2-[2-(4-Chloro-phenyl)-5,6-difluoro-2H-indazol-3-yl]-2,N-dicyclohexyl-acetamide] here?
Answer: Its IC50 is 680 nM.

Question: With N#Cc1ccc(COC(c2c3cc(F)c(F)cc3nn2-c2ccc(Cl)cc2)C2CCCCC2)c(F)c1 (racemic) [Example 41, [rac]-4-{[2-(4-Chloro-phenyl)-5,6-difluoro-2H-indazol-3-yl]-cyclohexyl-methoxymethyl}-3-fluoro-benzonitrile] as the compound, how does the IC50 read?
Answer: Its IC50 is 7130 nM.

Question: O=C(N[C@H]1CC[C@H](O)CC1)C(c1c2c(nn1-c1ccc(Cl)cc1)CCCC2)C1CCCCC1 (mixture of isomers) [Example 59, [rac]-2-[2-(4-Chloro-phenyl)-4,5,6,7-tetrahydro-2H-indazol-3-yl]-2-cyclohexyl-(trans)-N-(4-hydroxy-cyclohexyl)-acetamide] was tested. Which IC50 did it give?
Answer: The IC50 was 3040 nM.

Question: COC(=O)c1ccc(COC(c2c3ccccc3nn2-c2ccc(Cl)cc2)C2CCCCC2)cc1 (racemic) [Example 17] was tested. Which IC50 did it give?
Answer: The IC50 was 7540 nM.

Question: For O=C(O)C1(Oc2ccc(OCC(c3c4c(nn3-c3ccc(Cl)cc3)CCCC4)C3CCCCC3)cc2)CC1 (racemic) [Example 55, [rac]-1-(4-{2-[2-(4-Chloro-phenyl)-4,5,6,7-tetrahydro-2H-indazol-3-yl]-2-cyclohexyl-ethoxy}-phenoxy)-cyclopropanecarboxylic acid], which IC50 is on record?
Answer: Its IC50 is 42 nM.

Question: How did the IC50 turn out when Fc1cc2nn(-c3ccc(Cl)cc3)c(C(Oc3ccc(-c4nnn[nH]4)cc3F)C3CCCCC3)c2cc1F (racemic) [Example 50, [rac]-2-(4-Chloro-phenyl)-3-{cyclohexyl-[2-fluoro-4-(1H-tetrazol-5-yl)-phenoxy]-methyl}-5,6-difluoro-2H-indazole] was run?
Answer: Its IC50 is 58 nM.

Question: Which IC50 does the source give for N#Cc1ccc(COC(c2c3c(nn2-c2ccc(Cl)cc2)CCCC3)C2CCCCC2)cc1 (racemic) [Example 44, [rac]-4-{[2-(4-Chloro-phenyl)-4,5,6,7-tetrahydro-2H-indazol-3-yl]-cyclohexyl-methoxymethyl}-benzonitrile] here?
Answer: Its IC50 is 5620 nM.

Question: How did the IC50 turn out when O=C(Nc1ccc(OC2(C(=O)O)CC2)cc1F)C(c1c2c(nn1-c1ccc(Cl)cc1)CCCC2)C1CCCCC1 (single isomer, unassigned; (+)) [Example 22, (+)-1-(4-{2-[2-(4-Chloro-phenyl)-4,5,6,7-tetrahydro-2H-indazol-3-yl]-2-cyclohexyl-acetylamino}-3-fluoro-phenoxy)-cyclopropanecarboxylic acid] was run?
Answer: Its IC50 is 2060 nM.

Question: For O=C(O)c1ccc(OCC(c2c3ccccc3nn2-c2ccc(Cl)cc2)C2CCCCC2)nc1 (racemic) [Example 53, [rac]-6-{2-[2-(4-Chloro-phenyl)-2H-indazol-3-yl]-2-cyclohexyl-ethoxy}-nicotinic acid], which IC50 is on record?
Answer: Its IC50 is 730 nM.

Question: How did the IC50 turn out when O=C(O)c1ccc(NC(=O)C(c2c3cc(F)c(F)cc3nn2-c2ccc(Cl)cc2)C2CCCCC2)c(F)c1 (racemic) [Example 32, [rac]-4-{2-[2-(4-Chloro-phenyl)-5,6-difluoro-2H-indazol-3-yl]-2-cyclohexyl-acetylamino}-3-fluoro-benzoic acid] was run?
Answer: The IC50 was 1700 nM.

Question: Cc1cc(C(=O)O)cc(C)c1OCC(c1c2cc(F)c(F)cc2nn1-c1ccc(Cl)cc1)C1CCCCC1 (racemic) [Example 43, [rac]-4-{2-[2-[4-Chloro-phenyl]-5,6-difluoro-2H-indazol-3-yl]-2-cyclohexyl-ethoxy}-3,5-dimethyl-benzoic acid] was tested. Which IC50 did it give?
Answer: Its IC50 is 29 nM.

Question: With O=C(O)c1ccc(NC(=O)C(c2c3c(nn2-c2ccc(Cl)cc2)CCCC3)C2CCCCC2)c(F)c1 (stereo not shown) [Example 11, 4-{2-[2-(4-Chloro-phenyl)-4,5,6,7-tetrahydro-2H-indazol-3-yl]-2-cyclohexyl-acetylamino}-3-fluoro-benzoic acid] as the compound, how does the IC50 read?
Answer: Its IC50 is 1300 nM.

Question: For CC(C)(Oc1ccc(NC(=O)C(c2c3cc(F)c(F)cc3nn2-c2ccc(Cl)cc2)C2CCCCC2)c(F)c1)C(=O)O (racemic) [Example 26, [rac]-2-(4-{2-[2-(4-Chloro-phenyl)-5,6-difluoro-2H-indazol-3-yl]-2-cyclohexyl-acetylamino}-3-fluoro-phenoxy)-2-methyl-propionic acid], which IC50 is on record?
Answer: Its IC50 is 570 nM.

Question: With O=C(O)c1ccc(COC(c2c3cc(F)c(F)cc3nn2-c2ccc(Cl)cc2)C2CCCCC2)cc1 (racemic) [Example 27, [rac]-4-{[2-(4-Chloro-phenyl)-5,6-difluoro-2H-indazol-3-yl]-cyclohexyl-methoxymethyl}-benzoic acid] as the compound, how does the IC50 read?
Answer: The IC50 was 245 nM.

Question: O=C(NC1CCCCC1)C(c1c2ccccc2nn1-c1ccc(Cl)cc1)C1CCCCC1 (stereo not shown) [Example 4, 2-[2-(4-Chloro-phenyl)-2H-indazol-3-yl]-2,N-dicyclohexyl-acetamide] was tested. Which IC50 did it give?
Answer: The IC50 was 1390 nM.

Question: With O=C(O)c1ccc(NC(=O)C(c2c3ccccc3nn2-c2ccc(Cl)cc2)C2CCCCC2)cc1 (stereo not shown) [Example 12, 4-{2-[2-(4-Chloro-phenyl)-2H-indazol-3-yl]-2-cyclohexyl-acetylamino}-benzoic acid] as the compound, how does the IC50 read?
Answer: Its IC50 is 7300 nM.

Question: How did the IC50 turn out when Cc1cc(C(=O)O)cc(C)c1OCC(c1c2ccccc2nn1-c1ccc(Cl)cc1)C1CCCCC1 (racemic) [Example 29, [rac]-4-{2-[2-(4-Chloro-phenyl)-2H-indazol-3-yl]-2-cyclohexyl-ethoxy}-3,5-dimethyl-benzoic acid] was run?
Answer: Its IC50 is 26 nM.

Question: With O=C(O)c1ccc(NC(=O)C(c2c3ccccc3nn2-c2ccc(Cl)cc2)C2CCCCC2)c(F)c1 (stereo not shown) [Example 13, 4-{2-[2-(4-Chloro-phenyl)-2H-indazol-3-yl]-2-cyclohexyl-acetylamino}-3-fluoro-benzoic acid] as the compound, how does the IC50 read?
Answer: The IC50 was 4900 nM.

Question: Which IC50 does the source give for O=C(O)CCc1ccc(NC(=O)C(c2c3c(nn2-c2ccc(Cl)cc2)CCCC3)C2CCCCC2)c(F)c1 (racemic) [Example 61, [rac]-3-(4-{2-[2-(4-Chloro-phenyl)-4,5,6,7-tetrahydro-2H-indazol-3-yl]-2-cyclohexyl-acetylamino}-3-fluoro-phenyl)-propionic acid] here?
Answer: The IC50 was 130 nM.

Question: Which IC50 does the source give for Fc1cc2nn(-c3ccc(Cl)cc3)c(C(OCc3ccc(-c4nnn[nH]4)cc3F)C3CCCCC3)c2cc1F (racemic) [Example 42, [rac]-2-(4-Chloro-phenyl)-3-{cyclohexyl-[2-fluoro-4-(2H-tetrazol-5-yl)-benzyloxy]-methyl}-5,6-difluoro-2H-indazole] here?
Answer: The IC50 was 14 nM.

Question: Which IC50 does the source give for Fc1cc(-c2nnn[nH]2)ccc1OCC(c1c2ccccc2nn1-c1ccc(Cl)cc1)C1CCCCC1 (racemic) [Example 31, [rac]-2-(4-Chloro-phenyl)-3-{1-cyclohexyl-2-[2-fluoro-4-(2H-tetrazol-5-yl)-phenoxy]-ethyl}-2H-indazole] here?
Answer: The IC50 was 100 nM.

Question: For COc1cccc(C(C(=O)NC2CCCCC2)c2c3ccccc3nn2-c2ccccc2)c1 (stereo not shown) [Example 2, N-Cyclohexyl-2-(3-methoxy-phenyl)-2-(2-phenyl-2H-indazol-3-yl)-acetamide], which IC50 is on record?
Answer: Its IC50 is 9170 nM.
